Data taken from publication PMC5504357, “Antifungal Potential of Copper(II), Manganese(II) and Silver(I) 1,10-Phenanthroline Chelates Against Multidrug-Resistant Fungal Species Forming the Candida haemulonii Complex: Impact on the Planktonic and Biofilm Lifestyles” (Frontiers in Microbiology, 2017).

Experiments:
[1] = tested on: Candida haemulonii var. vulnera; test: Biofilm-growing cells, XTT assay, bMIC; assay type: cell-based; conditions: for GM-bMIC: geometric mean, C. haemulonii var. vulnera isolates; for bMIC: mature biofilm, 48 h, 50% inhibition of metabolic activity
Description: (§1) The effect of the compounds on biofilm-growing cells was determined using the previously described microtiter-based technique (Ramage et al., [2001]). The fungi (10^6 yeast cells) were incubated for 48 h at 37°C in 96-well polystyrene microtiter plates (Corning®, Corning Incorporated, USA) containing Sabouraud-dextrose broth to accommodate biofilm formation. Following biofilm formation, the culture medium was aspirated and non-adherent cells removed by thoroughly washing the wells three times with sterile PBS (0.15 M NaCl, 0.01 M phosphate buffer, pH 7.2). Afterwards, the compounds, at the same concentrations used in the planktonic assays, were added to the wells, and the plates were incubated for further 48 h at 37°C. The metabolic activity was then evaluated using a colorimetric assay that measures the metabolic reduction of 2,3-bis (2-methoxy-4-nitro-5-sulfophenyl)-5-[(phenylamino) carbonyl]-2H-tetrazolium hydroxide (XTT; Sigma-Aldrich) to a water-soluble, brown formazan product (Peeters et al., [2008]). The biofilm MIC (bMIC) for each compound was established as the minimal concentration capable of inhibiting 50% of metabolic activity when compared to compound-free wells (Ziccardi et al., [2015]).

Candida duobushaemulonii [2] = test: Biofilm-growing cells, XTT assay, bMIC; assay type: cell-based; conditions: for GM-bMIC: geometric mean, C. duobushaemulonii isolates; for bMIC: mature biofilm, 48 h, 50% inhibition of metabolic activity
Description: as §1

Candida haemulonii [3] = test: Biofilm-growing cells, XTT assay, bMIC; assay type: cell-based; conditions: for GM-bMIC: geometric mean, C. haemulonii isolates, values marked * do not include LIP Ch4 (>512); for bMIC: mature biofilm, 48 h, 50% inhibition of metabolic activity
Description: as §1

[4] = tested on: Candida haemulonii var. vulnera; test: Planktonic growth, broth microdilution (CLSI M27-A3), MIC; assay type: cell-based; conditions: for GM-MIC: geometric mean of three C. haemulonii var. vulnera isolates; for MIC: planktonic, 48 h, 37°C
From the text: (§2) Three clinical isolates of each species that form the C. haemulonii complex were used in this study: C. haemulonii (LIPCh4 from finger nail, LIPCh7 from toe nail, and LIPCh12 from blood), C. duobushaemulonii (LIPCh1 from finger nail, LIPCh6 from toe nail, and LIPCh8 from blood) and C. haemulonii var. vulnera (LIPCh5 from toe nail, LIPCh9 from urine, and LIPCh11 from blood) (Ramos et al., [2015]). The fungal isolates were identified by the automatized system VITEK® 2 and then characterized by ITS1-5.8S-ITS2 gene sequencing (Ramos et al., [2015]). Fungal cells were cultured in Sabouraud-dextrose medium under constant agitation (130 rpm) for 48 h at 37°C. Human lung adenocarcinoma A549 cells were maintained in culture flasks containing DMEM medium supplemented with 10% fetal bovine serum at 37°C in an atmosphere of 5% CO2.
(§3) Susceptibility profile assays were performed in accordance with the broth microdilution protocol described in the document M27-A3 published by the Clinical and Laboratory Standards Institutes (CLSI, [2008]). Samples of the test chelates were dissolved in DMSO (500 μL) and then serially diluted in a 96-well plate containing RPMI 1640 (Sigma-Aldrich, USA) to give the concentration range of 0.0625-32 mg/L. Aqueous solutions of the metal-free phen ligand and the simple metal salts, MnCl2, CuCl2, and AgNO3, were also screened over the same concentration range. Caspofungin (Sigma-Aldrich) was used as a classical antifungal agent able to block the growth of all clinical isolates of C. haemulonii species as previously reported by our research group (Ramos et al., [2015]). Water dilutions containing DMSO concentrations corresponding to those used to prepare the drug solutions were assessed in parallel. Untreated and compound-treated fungal cells were incubated at 37°C for 48 h and the minimal inhibitory concentration (MIC) was established as the lowest compound concentration where no cellular growth could be detected by visual inspection in accordance to the CLSI recommendation. The geometric mean of the MIC values (GM-MIC) of each compound against all the fungal isolates was calculated using the software, Microsoft Office Excel 2013.

Candida duobushaemulonii [5] = test: as above; assay type: cell-based; conditions: for GM-MIC: geometric mean of three C. duobushaemulonii isolates; for MIC: planktonic, 48 h, 37°C
From the text: as §2, §3

Candida haemulonii [6] = test: as above; assay type: cell-based; conditions: for GM-MIC: geometric mean of three C. haemulonii isolates; for MIC: planktonic, 48 h, 37°C
From the text: as §2, §3

A549 cells = test: Mammalian cell toxicity (MTT assay) and selectivity index; assay type: cell-based, Human; conditions: MTT, 48 h incubation
From the text: as §2
The cytotoxicity was evaluated using the MTT [3-(4,5-dimethylthiazol-2-yl)-2,5-diphenyl tetrazolium bromide] (Sigma-Aldrich) assay (Mosmann, [1983]). A549 cells (10^4) were seeded into tissue culture plates (TPP, Switzerland) and cultured for 24 h at 37°C in a 5% CO2 in order to obtain cellular confluence. The wells were then washed twice with DMEM to remove non-adherent cells and the test compounds were added (in concentrations ranging from 0.0313 to 512 μg/mL) to plates containing DMEM, followed by a 48 h incubation period under the same conditions mentioned above. The cellular viability was evaluated by adding MTT to each well and incubating the plates in the dark for 3 h, allowing the viable cells containing active mitochondrial dehydrogenase enzymes to metabolize MTT-tetrazolium salt into purple formazan. The formazan crystals were then dissolved in DMSO (100 μL) and the absorbance (450 nm) measured using a Thermomax Molecular Device microplate reader. The concentration capable of reducing cellular viability by 50% (CC50) was calculated, and the selectivity index (SI) determined using the following equation: A549 CC50/C. haemulonii complex GM-MIC.

C. haemulonii complex = test: Planktonic growth, overall across all nine isolates; assay type: cell-based, Candida haemulonii complex; conditions: geometric mean across all nine strains; for MIC: in μM, read-out: Overall GM-MIC
From the text: as §2, §3

[7] = tested on: Candida haemulonii complex; test: Biofilm-growing cells, overall across isolates; assay type: cell-based; conditions: geometric mean across strains, values marked * do not include LIP Ch4 (>512)
Description: as §1

SMILES | GM-bMIC [1] | bMIC ([1]; isolate LIP Ch5) | bMIC ([1]; isolate LIP Ch9) | bMIC ([1]; isolate LIP Ch13) | GM-bMIC (Candida duobushaemulonii [2]) | bMIC (Candida duobushaemulonii [2]; isolate LIP Ch1) | bMIC (Candida duobushaemulonii [2]; isolate LIP Ch6) | bMIC (Candida duobushaemulonii [2]; isolate LIP Ch8) | GM-bMIC (Candida haemulonii [3]) | bMIC (Candida haemulonii [3]; isolate LIP Ch4) | bMIC (Candida haemulonii [3]; isolate LIP Ch7) | bMIC (Candida haemulonii [3]; isolate LIP Ch14) | GM-MIC [4] | MIC ([4]; isolate LIP Ch5) | MIC ([4]; isolate LIP Ch9) | MIC ([4]; isolate LIP Ch11) | GM-MIC (Candida duobushaemulonii [5]) | MIC (Candida duobushaemulonii [5]; isolate LIP Ch1) | MIC (Candida duobushaemulonii [5]; isolate LIP Ch6) | MIC (Candida duobushaemulonii [5]; isolate LIP Ch8) | also measured
O.O.O.O.O.O.O=C([O-])CCCCCCC(=O)[O-].O=C([O-])CCCCCCC(=O)[O-].O=C([O-])CCCCCCC(=O)[O-].O=C([O-])CCCCCCC(=O)[O-].[Mn+2].[Mn+2].[Mn+2].[Mn+2].c1cnc2c(c1)ccc1cccnc12.c1cnc2c(c1)ccc1cccnc12.c1cnc2c(c1)ccc1cccnc12.c1cnc2c(c1)ccc1cccnc12.c1cnc2c(c1)ccc1cccnc12.c1cnc2c(c1)ccc1cccnc12.c1cnc2c(c1)ccc1cccnc12.c1cnc2c(c1)ccc1cccnc12 [compound 13, [Mn2(oda)(phen)4(H2O)2][Mn2(oda)(phen)4(oda)2].4H2O] | 8 mg/L | 16 mg/L | 4 mg/L | 8 mg/L | 5.04 mg/L | 4 mg/L | 4 mg/L | 8 mg/L | 22.63^* mg/L | >512 mg/L | 32 mg/L | 16 mg/L | 2 µg/mL | 2 µg/mL | 2 µg/mL | 2 µg/mL | 2.52 µg/mL | 2 µg/mL | 4 µg/mL | 2 µg/mL | GM-MIC (Candida haemulonii [6]): 2 µg/mL; MIC (Candida haemulonii [6]; isolate LIP Ch4): 2 µg/mL; MIC (Candida haemulonii [6]; isolate LIP Ch7): 2 µg/mL; MIC (Candida haemulonii [6]; isolate LIP Ch12): 2 µg/mL; A549 (CC50) (A549 cells): >512 µg/mL; Overall GM-MIC (C. haemulonii complex): 2.16 µg/mL; MIC (C. haemulonii complex): 0.87 µM; Overall GM-bMIC [7]: 8.72 mg/L
O.O.O.O.O.O.O.O.O.O.O.O.O.O.O.O.O=C([O-])c1cccc(C(=O)[O-])c1.O=C([O-])c1cccc(C(=O)[O-])c1.[Mn+2].[Mn+2].c1cnc2c(c1)ccc1cccnc12.c1cnc2c(c1)ccc1cccnc12.c1cnc2c(c1)ccc1cccnc12.c1cnc2c(c1)ccc1cccnc12.c1cnc2c(c1)ccc1cccnc12 [compound 11, {[Mn(phen)2(H2O)2]}2(isoph)2(phen).12H2O] | 8 mg/L | 16 mg/L | 4 mg/L | 8 mg/L | 6.35 mg/L | 8 mg/L | 8 mg/L | 4 mg/L | 16^* mg/L | >512 mg/L | 8 mg/L | 32 mg/L | 2.52 µg/mL | 4 µg/mL | 2 µg/mL | 2 µg/mL | 2.52 µg/mL | 2 µg/mL | 4 µg/mL | 2 µg/mL | GM-MIC (Candida haemulonii [6]): 2.52 µg/mL; MIC (Candida haemulonii [6]; isolate LIP Ch4): 4 µg/mL; MIC (Candida haemulonii [6]; isolate LIP Ch7): 2 µg/mL; MIC (Candida haemulonii [6]; isolate LIP Ch12): 2 µg/mL; A549 (CC50) (A549 cells): 251.76 µg/mL; Overall GM-MIC (C. haemulonii complex): 2.52 µg/mL; MIC (C. haemulonii complex): 1.54 µM; Overall GM-bMIC [7]: 8.72 mg/L
O.O.O.O.O.O=C([O-])c1ccc(C(=O)[O-])cc1.[Mn+2].c1cnc2c(c1)ccc1cccnc12.c1cnc2c(c1)ccc1cccnc12 [compound 12, [Mn(tereph)(phen)2].5H2O] | 5.04 mg/L | 2 mg/L | 4 mg/L | 16 mg/L | 16 mg/L | 32 mg/L | 8 mg/L | 16 mg/L | 16^* mg/L | >512 mg/L | 16 mg/L | 16 mg/L | 4 µg/mL | 4 µg/mL | 4 µg/mL | 4 µg/mL | 4 µg/mL | 4 µg/mL | 4 µg/mL | 4 µg/mL | GM-MIC (Candida haemulonii [6]): 4 µg/mL; MIC (Candida haemulonii [6]; isolate LIP Ch4): 4 µg/mL; MIC (Candida haemulonii [6]; isolate LIP Ch7): 4 µg/mL; MIC (Candida haemulonii [6]; isolate LIP Ch12): 4 µg/mL; A549 (CC50) (A549 cells): 251.94 µg/mL; Overall GM-MIC (C. haemulonii complex): 4 µg/mL; MIC (C. haemulonii complex): 5.96 µM; Overall GM-bMIC ([7]; in μM): 15.48 µM; Overall GM-bMIC [7]: 10.37 mg/L
